ChEMBL document CHEMBL1201862, “PubChem BioAssay data set” (2004)
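Each compound was tested at five concentrations against cells in 96-well plates for 48 hours. Abbreviation: GI50, concentration required for 50% inhibition of growth.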 Active and inactive are the calls of the source. No stated cut-off is given here; in the data, active = GI50 up to about 1.1 µM and inactive = higher.

Assays:
Test in all cases: NCI-60 cell line screen, 48 h
LOX IMVI = tested on: LOX IMVI
K562 = tested on: K562
786-0 = tested on: 786-0
HOP-92 = tested on: HOP-92
OVCAR-8 = tested on: OVCAR-8
IGROV-1 = tested on: IGROV-1
MCF7 = tested on: MCF7
HCC 2998 = tested on: HCC 2998
ACHN = tested on: ACHN
SW-620 = tested on: SW-620
NCI-H23 = tested on: NCI-H23
UACC-62 = tested on: UACC-62
SK-MEL-5 = tested on: SK-MEL-5
UO-31 = tested on: UO-31
T47D = tested on: T47D
SN12C = tested on: SN12C
DU-145 = tested on: DU-145
HCT-116 = tested on: HCT-116
NCI/ADR-RES = tested on: NCI/ADR-RES
OVCAR-5 = tested on: OVCAR-5
PC-3 = tested on: PC-3
OVCAR-4 = tested on: OVCAR-4
OVCAR-3 = tested on: OVCAR-3
SF-539 = tested on: SF-539
EKVX = tested on: EKVX
UACC-257 = tested on: UACC-257
CCRF-CEM = tested on: CCRF-CEM
SK-MEL-28 = tested on: SK-MEL-28
MDA-MB-231 = tested on: MDA-MB-231
HOP-62 = tested on: HOP-62
NCI-H522 = tested on: NCI-H522
SK-OV-3 = tested on: SK-OV-3
SNB-75 = tested on: SNB-75
Malme-3M = tested on: Malme-3M
U-251 = tested on: U-251
MOLT-4 = tested on: MOLT-4
HCT-15 = tested on: HCT-15
MDA-MB-435 = tested on: MDA-MB-435
KM12 = tested on: KM12
NCI-H460 = tested on: NCI-H460
RXF 393 = tested on: RXF 393
HL-60 = tested on: HL-60
RPMI-8226 = tested on: RPMI-8226
SF-295 = tested on: SF-295
SF-268 = tested on: SF-268
Hs-578T = tested on: Hs-578T
BT-549 = tested on: BT-549
COLO 205 = tested on: COLO 205
NCI-H226 = tested on: NCI-H226
A549 = tested on: A549
HT-29 = tested on: HT-29
MDA-N = tested on: MDA-N
TK-10 = tested on: TK-10
SR = tested on: SR
CAKI-1 = tested on: CAKI-1
A498 = tested on: A498
M14 = tested on: M14
SK-MEL-2 = tested on: SK-MEL-2
SNB-19 = tested on: SNB-19

COc1ccc(C2=Nn3c(nc4sc(C)c(C)c4c3=O)SC2)cc1
GI50 (LOX IMVI): > 100000 nM (inactive) | GI50 (K562): > 100000 nM (inactive) | GI50 (786-0): > 100000 nM (inactive) | GI50 (HOP-92): > 100000 nM (inactive) | GI50 (OVCAR-8): > 100000 nM (inactive) | GI50 (IGROV-1): > 100000 nM (inactive) | GI50 (MCF7): > 100000 nM (inactive) | GI50 (HCC 2998): > 100000 nM (inactive) | GI50 (ACHN): > 100000 nM (inactive) | GI50 (SW-620): > 100000 nM (inactive) | GI50 (NCI-H23): > 100000 nM (inactive) | GI50 (UACC-62): > 100000 nM (inactive) | GI50 (SK-MEL-5): > 100000 nM (inactive) | GI50 (UO-31): > 100000 nM (inactive) | GI50 (T47D): > 100000 nM (inactive) | GI50 (SN12C): > 100000 nM (inactive) | GI50 (DU-145): > 100000 nM (inactive) | GI50 (HCT-116): > 100000 nM (inactive) | GI50 (NCI/ADR-RES): > 100000 nM (inactive) | GI50 (OVCAR-5): > 100000 nM (inactive) | GI50 (PC-3): > 100000 nM (inactive) | GI50 (OVCAR-4): > 100000 nM (inactive) | GI50 (OVCAR-3): > 100000 nM (inactive) | GI50 (SF-539): > 100000 nM (inactive) | GI50 (EKVX): > 100000 nM (inactive) | GI50 (UACC-257): > 100000 nM (inactive) | GI50 (CCRF-CEM): > 100000 nM (inactive) | GI50 (SK-MEL-28): > 100000 nM (inactive) | GI50 (MDA-MB-231): > 100000 nM (inactive) | GI50 (HOP-62): > 100000 nM (inactive) | GI50 (NCI-H522): > 100000 nM (inactive) | GI50 (SK-OV-3): > 100000 nM (inactive) | GI50 (SNB-75): > 100000 nM (inactive) | GI50 (Malme-3M): > 100000 nM (inactive) | GI50 (U-251): > 100000 nM (inactive) | GI50 (MOLT-4): > 100000 nM (inactive) | GI50 (HCT-15): > 100000 nM | GI50 (MDA-MB-435): > 100000 nM (inactive) | GI50 (KM12): > 100000 nM (inactive) | GI50 (NCI-H460): > 100000 nM (inactive) | GI50 (RXF 393): > 100000 nM (inactive) | GI50 (HL-60): > 100000 nM (inactive) | GI50 (RPMI-8226): > 100000 nM (inactive) | GI50 (SF-295): > 100000 nM (inactive) | GI50 (SF-268): > 100000 nM (inactive) | GI50 (Hs-578T): > 100000 nM (inactive) | GI50 (BT-549): > 100000 nM (inactive) | GI50 (COLO 205): > 100000 nM (inactive) | GI50 (NCI-H226): > 100000 nM (inactive) | GI50 (A549): > 100000 nM (inactive) | GI50 (HT-29): > 100000 nM (inactive) | GI50 (MDA-N): > 100000 nM (inactive) | GI50 (TK-10): > 100000 nM (inactive) | GI50 (SR): > 100000 nM (inactive) | GI50 (CAKI-1): > 100000 nM (inactive) | GI50 (A498): > 100000 nM (inactive)

CC(=O)Nc1cc(/C=C\C(=O)N2CC(CCl)c3c2cc(N)c2ccccc32)n(C)n1 (stereo not drawn)
GI50 (LOX IMVI): 8.79 nM (active) | GI50 (K562): 4.17 nM (active) | GI50 (786-0): 1.43 nM (active) | GI50 (HOP-92): 19.4 nM (active) | GI50 (OVCAR-8): 1.68 nM (active) | GI50 (IGROV-1): 13.7 nM (active) | GI50 (MCF7): 2.04 nM (active) | GI50 (M14): 11.5 nM (active) | GI50 (HCC 2998): 14.8 nM (active) | GI50 (ACHN): < 1 nM (active) | GI50 (SW-620): 12.3 nM (active) | GI50 (NCI-H23): 1.92 nM (active) | GI50 (UACC-62): 4.23 nM (active) | GI50 (SK-MEL-5): 2.69 nM (active) | GI50 (UO-31): 2.84 nM (active) | GI50 (T47D): 2.99 nM (active) | GI50 (SK-MEL-2): 16.6 nM (active) | GI50 (SN12C): < 1 nM (active) | GI50 (DU-145): < 1 nM (active) | GI50 (HCT-116): 1.49 nM (active) | GI50 (NCI/ADR-RES): 21.6 nM (active) | GI50 (OVCAR-5): 21.5 nM (active) | GI50 (PC-3): 23.3 nM (active) | GI50 (OVCAR-4): 17 nM (active) | GI50 (OVCAR-3): 16.4 nM (active) | GI50 (SF-539): 6.21 nM (active) | GI50 (EKVX): 25.1 nM (active) | GI50 (UACC-257): 13.2 nM (active) | GI50 (CCRF-CEM): < 1 nM (active) | GI50 (SK-MEL-28): 14.4 nM (active) | GI50 (MDA-MB-231): 45 nM (active) | GI50 (HOP-62): 3.47 nM (active) | GI50 (SK-OV-3): 16.3 nM (active) | GI50 (SNB-75): 1.65 nM (active) | GI50 (Malme-3M): 12 nM (active) | GI50 (U-251): 3.1 nM (active) | GI50 (MOLT-4): 2.01 nM (active) | GI50 (HCT-15): 23.3 nM | GI50 (MDA-MB-435): 16.9 nM (active) | GI50 (KM12): 16.7 nM (active) | GI50 (NCI-H460): < 1 nM (active) | GI50 (RXF 393): < 1 nM (active) | GI50 (HL-60): < 1 nM (active) | GI50 (RPMI-8226): 17.9 nM (active) | GI50 (SF-295): 13.5 nM (active) | GI50 (SNB-19): 38.6 nM (active) | GI50 (SF-268): 5.7 nM (active) | GI50 (Hs-578T): 54.3 nM (active) | GI50 (BT-549): 19.9 nM (active) | GI50 (COLO 205): 23.5 nM (active) | GI50 (NCI-H226): 8.05 nM (active) | GI50 (A549): 6.14 nM (active) | GI50 (MDA-N): 18.5 nM (active) | GI50 (TK-10): 19.1 nM (active) | GI50 (SR): < 1 nM (active) | GI50 (CAKI-1): 1.29 nM (active) | GI50 (A498): 3.73 nM (active)
